Measurements taken from article PMC12615863, “Improving GRPR-targeting peptides for radiotheranostics application: insights from chelator modifications and α-methyl-L tryptophan substitution” (EJNMMI Radiopharmacy and Chemistry, 2025).
Like-named read-outs stand apart in the source and are kept apart here.

Tests used:
[1] = In vivo stability: intact radiopeptide in peripheral mouse blood 5 min pi, radio-HPLC; details: for Percentage of intact peptide, Entresto: blood 5 min pi
Procedure: Two animals per peptide were injected intravenously with a bolus of test radioligand (50 MBq, 2 nmol of peptide in 100 μL PBS/EtOH v/v 9:1) – Control group. To inhibit NEP, additional groups of two mice per compound were orally treated with 12 mg Entresto® (Novartis, Basel, Switzerland) 30 min before receiving the intravenous injection—Entresto group. Five minutes post-injection (pi), the animals were euthanized, and the blood was collected and immediately mixed with EDTA (0.1 mM, 40 μL) in Eppendorf tubes on ice. The mixture was spun at 2000 g for 10 min at 4 °C in an Eppendorf Centrifuge 5430 R (Eppendorf AG, Hamburg, Germany), and the plasma was collected and diluted with an equal volume of MeCN (4 °C). After a second centrifugation at 15,000 g and 4 °C for 10 min, the supernatant was collected in an Eppendorf tube and concentrated to 50–100 μL at 50 °C using a mild stream of N2. PBS was added to the samples to reach a final volume of 200 μL, and the solutions were filtered through a syringe filter (0.22 μm, 13 mm, VWR International, Radnor, USA). The filtered solution was analyzed by reversed-phase radio-HPLC to determine the percentage of intact peptides. The peak corresponding to the intact peptide was identified by injection of an aliquot of the labeling solution.

[2] = system: PC-3 xenografts; test: Biodistribution in mice bearing PC-3 xenografts; assay type: in vivo, Balb/c nu/nu mice; details: PC-3 xenografted mice, between 4 and 24 h pi
Procedure: (§1) Each mouse was xenografted with a subcutaneous injection of 8 × 10⁶ PC-3 cells in the right hind leg. After approximately 4 weeks, the animals were injected into the tail vein with 100 µL of radiopeptide (100 pmol—110–130 kBq, diluted in PBS/BSA). Four animals were used for each time point per peptide. […] At the determined time points, the mice were euthanized, organs were collected and weighed, and their activity content was measured in the gamma counter. Results were presented as the percentage of injected activity per gram (%IA/g) for the collected organs, and the percentage of injected activity (%IA) for the gastrointestinal tract (GI) and the carcass. […] Statistical analysis was performed with GraphPad Prism 10 using two way ANOVA with Tuckey’s or Šidák’a post hoc analysis.

[3] = Biodistribution in mice bearing PC-3 xenografts; assay type: in vivo, Balb/c nu/nu mice; details: mouse, total radioactivity, PC-3 xenografted Balb/c nu/nu mice, iv 100 pmol, mean ± SD; for tissue uptake at 2 h / tissue uptake at 4 h / tissue uptake at 24 h: Balb/c nu/nu, iv; for tissue uptake at 4 h / tissue uptake dose at 4 h: 4 h pi; for tissue uptake at 24 h / tissue uptake dose at 24 h: 24 h pi
Procedure: as §1

[4] = system: PC-3 cells; test: In vitro GRPR specificity assay (uptake with or without NOTA-PEG2-RM26 block); assay type: cell-based, human
Procedure: After discarding the medium, the cells were washed with cold (4 °C) phosphate-buffered saline containing 1% w/v bovine serum albumin (PBS/BSA). The radiopeptides (Cf = 1 nM in 1 mL PBS/BSA) were added to all wells. A subset of wells was also treated with an excess of unlabeled GRPR-binding peptide NOTA-PEG2-RM26 (Bjäreback et al. [2025]) (Cf = 1 µM in 1 mL PBS/BSA) to block GRPR. After incubation for 1 h at 37 °C, the supernatant was removed, and the cells were washed and then collected by treating them with 1 M NaOH. The activity of the collected samples was measured with the gamma counter. This assay was performed in triplicate for each radiopeptide.

[5] = blood, 100 pmol, n = 4, read-out: Blood activity uptake
[6] = bone, 100 pmol, n = 4, read-out: Bone activity uptake
[7] = kidneys, 100 pmol, n = 4, read-out: Kidneys activity uptake
[8] = liver, 100 pmol, n = 4, read-out: Liver activity uptake
[9] = lungs, 100 pmol, n = 4, read-out: Lungs activity uptake
[10] = muscle, 100 pmol, n = 4, read-out: Muscle activity uptake
[11] = pancreas, 100 pmol, n = 4, read-out: Pancreas activity uptake
[12] = small intestine, 100 pmol, n = 4, read-out: Small Int. activity uptake
[13] = spleen, 100 pmol, n = 4, read-out: Spleen activity uptake
[14] = stomach, 100 pmol, n = 4, read-out: Stomach activity uptake
[15] = tumor, 100 pmol, n = 4, read-out: Tumor activity uptake
[16] = carcass, n = 4, read-out: Body activity uptake
[17] = gastrointestinal tract with content, n = 4, read-out: GI activity uptake

CC(C)C[C@H](NC(=O)C[C@H](O)[C@H](CC(C)C)NC(=O)[C@H](Cc1c[nH]cn1)NC(=O)CN(C)C(=O)[C@@H](NC(=O)[C@H](C)NC(=O)[C@](C)(Cc1c[nH]c2ccccc12)NC(=O)[C@H](CCC(N)=O)NC(=O)[C@@H](Cc1ccccc1)NC(=O)CN1CCC(NC(=O)COCCOCCNC(=O)CN2CCN(CC(=O)O)CCN(CC(=O)O)CCN(CC(=O)O)CC2)CC1)C(C)C)C(N)=O [[^177Lu]Lu-PKB3, metal not drawn]
Percentage of intact peptide, Entresto ([1]; NMRI mice, 12 mg Entresto orally 30 min before injection, recorded value n1): 90% [90% - 90%] | Percentage of intact peptide, Entresto ([1]; NMRI mice, 12 mg Entresto orally 30 min before injection, recorded value n2): 90% [90% - 90%] | Percentage of intact peptide, Entresto ([1]; healthy NMRI mice, 12 mg Entresto orally 30 min before iv injection (NEP inhibition), radio-HPLC, mean of n = 2): 90% [90% - 90%] | Percentage of intact peptide, Control ([1]; healthy NMRI mice, iv 50 MBq, 2 nmol, peripheral blood 5 min pi, radio-HPLC, mean of n = 2): 91% [88% - 94%] | tumor retention of activity [2]: around 80% | tissue uptake at 2 h ([3]; blood, 100 pmol, 2 h pi, n = 4, read-out: Blood activity uptake): 0.22 ± 0.04 %ID/g | tissue uptake at 4 h [3, 5]: 0.09 ± 0.02 %ID/g | tissue uptake at 24 h [3, 5]: 0.02 ± 0.01 %ID/g | tissue uptake at 2 h ([3]; blood, 2 h pi blocked (co-injected 100-fold molar excess NOTA-PEG2-RM26), n = 3, read-out: Blood activity uptake): 0.13 ± 0.06 %ID/g | tissue uptake at 2 h ([3]; bone, 100 pmol, 2 h pi, n = 4, read-out: Bone activity uptake): 0.16 ± 0.03 %ID/g | tissue uptake at 4 h [3, 6]: 0.13 ± 0.04 %ID/g | tissue uptake at 24 h [3, 6]: 0.08 ± 0.03 %ID/g | tissue uptake at 2 h ([3]; bone, 2 h pi blocked (co-injected 100-fold molar excess NOTA-PEG2-RM26), n = 3, read-out: Bone activity uptake): 0.11 ± 0.03 %ID/g | tissue uptake at 2 h ([3]; kidneys, 100 pmol, 2 h pi, n = 4, read-out: Kidneys activity uptake): 7.4 ± 1 %ID/g | tissue uptake at 4 h [3, 7]: 5.9 ± 0.8 %ID/g | tissue uptake at 24 h [3, 7]: 4.3 ± 0.8 %ID/g | tissue uptake at 2 h ([3]; kidneys, 2 h pi blocked (co-injected 100-fold molar excess NOTA-PEG2-RM26), n = 3, read-out: Kidneys activity uptake): 5.4 ± 0.7 %ID/g | tissue uptake at 2 h ([3]; liver, 100 pmol, 2 h pi, n = 4, read-out: Liver activity uptake): < 0.5 %ID/g | tissue uptake at 4 h [3, 8]: 0.42 ± 0.03 %ID/g | tissue uptake at 24 h [3, 8]: 0.24 ± 0.02 %ID/g | tissue uptake at 2 h ([3]; liver, 2 h pi blocked (co-injected 100-fold molar excess NOTA-PEG2-RM26), n = 3, read-out: Liver activity uptake): 0.38 ± 0.05 %ID/g | tissue uptake at 2 h ([3]; lungs, 100 pmol, 2 h pi, n = 4, read-out: Lungs activity uptake): 0.6 ± 0.3 %ID/g | tissue uptake at 4 h [3, 9]: 0.24 ± 0.08 %ID/g | tissue uptake at 24 h [3, 9]: 0.09 ± 0.01 %ID/g | tissue uptake at 2 h ([3]; lungs, 2 h pi blocked (co-injected 100-fold molar excess NOTA-PEG2-RM26), n = 3, read-out: Lungs activity uptake): 0.27 ± 0.03 %ID/g | tissue uptake at 2 h ([3]; muscle, 100 pmol, 2 h pi, n = 4, read-out: Muscle activity uptake): 0.09 ± 0.02 %ID/g | tissue uptake at 4 h [3, 10]: 0.1 ± 0.1 %ID/g | tissue uptake at 24 h [3, 10]: 0.02 ± 0.01 %ID/g | tissue uptake at 2 h ([3]; muscle, 2 h pi blocked (co-injected 100-fold molar excess NOTA-PEG2-RM26), n = 3, read-out: Muscle activity uptake): 0.07 ± 0.05 %ID/g | tissue uptake at 2 h ([3]; pancreas, 100 pmol, 2 h pi, n = 4, read-out: Pancreas activity uptake): 11.9 ± 2.1 %ID/g | tissue uptake at 4 h [3, 11]: 4.7 ± 0.4 %ID/g | tissue uptake at 24 h [3, 11]: 0.5 ± 0.2 %ID/g | tissue uptake at 2 h ([3]; small intestine, 100 pmol, 2 h pi, n = 4, read-out: Small Int. activity uptake): 2.2 ± 0.6 %ID/g | tissue uptake at 4 h [3, 12]: 1 ± 0.3 %ID/g | tissue uptake at 24 h [3, 12]: 0.11 ± 0.03 %ID/g | tissue uptake at 2 h ([3]; small intestine, 2 h pi blocked (co-injected 100-fold molar excess NOTA-PEG2-RM26), n = 3, read-out: Small Int. activity uptake): 0.7 ± 0.3 %ID/g | tissue uptake at 2 h ([3]; spleen, 100 pmol, 2 h pi, n = 4, read-out: Spleen activity uptake): 0.4 ± 0.2 %ID/g | tissue uptake at 4 h [3, 13]: 0.25 ± 0.07 %ID/g | tissue uptake at 24 h [3, 13]: 0.16 ± 0.06 %ID/g | tissue uptake at 2 h ([3]; spleen, 2 h pi blocked (co-injected 100-fold molar excess NOTA-PEG2-RM26), n = 3, read-out: Spleen activity uptake): 0.13 ± 0.02 %ID/g | tissue uptake at 2 h ([3]; stomach, 100 pmol, 2 h pi, n = 4, read-out: Stomach activity uptake): 2.5 ± 0.2 %ID/g | tissue uptake at 4 h [3, 14]: 1.9 ± 0.3 %ID/g | tissue uptake at 24 h [3, 14]: 0.16 ± 0.05 %ID/g | tissue uptake at 2 h ([3]; stomach, 2 h pi blocked (co-injected 100-fold molar excess NOTA-PEG2-RM26), n = 3, read-out: Stomach activity uptake): 0.6 ± 0.1 %ID/g | tissue uptake at 2 h ([3]; tumor, 100 pmol, 2 h pi, n = 4, read-out: Tumor activity uptake): 23.8 ± 2.5 %ID/g | tissue uptake at 4 h [3, 15]: 18.8 ± 0.7 %ID/g | tissue uptake at 24 h [3, 15]: 15.3 ± 2.7 %ID/g | tissue uptake at 2 h ([3]; tumor, 2 h pi blocked (co-injected 100-fold molar excess NOTA-PEG2-RM26), n = 3, read-out: Tumor activity uptake): 3.4 ± 0.3 %ID/g | tissue uptake dose at 2 h ([3]; carcass, 2 h pi, n = 4, read-out: Body activity uptake): 2.7 ± 0.8 %ID | tissue uptake dose at 4 h [3, 16]: 2.2 ± 0.4 %ID | tissue uptake dose at 24 h [3, 16]: 1.1 ± 0.7 %ID | tissue uptake dose at 2 h ([3]; gastrointestinal tract with content, 2 h pi, n = 4, read-out: GI activity uptake): 2 ± 0.2 %ID | tissue uptake dose at 4 h [3, 17]: 0.4 ± 0.3 %ID | tissue uptake dose at 24 h [3, 17]: 0.16 ± 0.03 %ID | in vitro binding specificity ([4]; 1 nM radiopeptide, 1 h at 37 °C, block with 1 µM NOTA-PEG2-RM26, n = 3): GRPR-mediated activity uptake | total cellular activity uptake (rank among the three radiopeptides) ([4]; 1 nM, 37 °C, n = 3): highest
